We go through six compounds from patent US4999436A, “Aryl-substituted thiophene 3-ols, derivatives and analogs useful as lipoxgenase inhibitors” (Merck & Co., Inc., priority 1989, dated 1991).

SMILES strings stand for the structures. Where “and” joins values, the source holds several entries; their conditions need not be identical. Equal values may be shown once.

For one experiment, the target named is T1, cyclooxygenase (Ovis aries, UniProt P05979).
T1 construct: Ram seminal vesicular glands were trimmed of fat; from tissue; host or cells: ram seminal vesicular glands, microsomal pellet (105K xg)
T1 sequence (P05979 25-600): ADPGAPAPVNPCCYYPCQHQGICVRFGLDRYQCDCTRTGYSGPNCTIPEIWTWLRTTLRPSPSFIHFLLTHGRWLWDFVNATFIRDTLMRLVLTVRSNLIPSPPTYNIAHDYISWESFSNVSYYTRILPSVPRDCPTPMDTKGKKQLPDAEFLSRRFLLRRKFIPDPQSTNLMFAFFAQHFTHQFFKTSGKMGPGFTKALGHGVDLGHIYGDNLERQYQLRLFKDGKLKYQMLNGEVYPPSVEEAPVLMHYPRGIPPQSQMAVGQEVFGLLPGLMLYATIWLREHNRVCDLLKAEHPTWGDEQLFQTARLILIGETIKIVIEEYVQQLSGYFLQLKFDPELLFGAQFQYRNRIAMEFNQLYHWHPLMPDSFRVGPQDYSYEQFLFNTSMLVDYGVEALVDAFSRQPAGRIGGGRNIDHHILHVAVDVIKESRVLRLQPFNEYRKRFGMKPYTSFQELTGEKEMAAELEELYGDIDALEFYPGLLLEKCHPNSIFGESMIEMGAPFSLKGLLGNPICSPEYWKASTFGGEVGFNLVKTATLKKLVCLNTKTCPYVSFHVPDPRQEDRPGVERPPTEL
Kind of experiment: RSVM-CO: Ram Seminal Vesicle Microsomal Cyclooxygenase assay. Type of experiment: biochemical. The note with it: for inhibition at 0.01 µg/mL: 0.01 μg/ml; for inhibition at 0.1 µg/mL: 0.1 μg/ml; for inhibition at 1 µg/mL: 1 μg/ml; for inhibition at 10 µg/mL: 10 μg/ml. The source says: (§1) Two screening methods were employed for the purposes of evaluating the biological activities of the compounds of the present invention. The PMN5LO assay is a direct measure of the capacity to inhibit 5-lipoxygenase. The second protocol, RSVM-CO, is a method of determining inhibition of cyclooxygenase enzyme activity and as such it serves as a negative control.
B. Ram Seminal Vesicle Microsomal Cyclooxygenase (RSVM-CO) Assay Protocol
Ram seminal vesicular glands were trimmed of fat, 50 grams diced into 250 mls ice cold 0.1 M potassium phosphate (pH 7.6) buffer and homogenized using a Brinkman Polytron. The suspension was centrifuged 10 minutes at […] (4° C.) and the supernatant filtered through two cheesecloth layers. The filtrate was centrifuged 160 minutes at 105K xg, the supernatant thereof discarded, and the pellet surface rinsed with a small volume of buffer. The pellets were combined in a small volume, briefly homogenized with the Polytron and frozen in 0.5 ml aliquots at -80° C. The protein concentration was about 50 mg/ml.
The thawed enzyme was diluted 1:63 with 0.125 M Na EDTA (pH 8.0) containing 50 μg/ml BSA. A substrate-cofactor premix was prepared with 66 μM ^14 C-arachidonic acid (about 20K cpm/12.5 μl) in 500 μl 0.125 M Na EDTA (pH 8.0) plus 10 μl 50 mM hydroquinone and 10 μl 200 mM glutathione. To each sample well in the 96 well plate, agents dissolved in 0.5 μ DMSO were added, followed by 12.5 μl of the diluted enzyme. After a 4 minute preincubation at room temperature, 12.5 μl of the substrate-cofactor mix was added to start the reaction. The reaction was terminated after 20 minutes at room temperature by adding 25 μl of methanol containing 200 μg PGE2 and 400 μg AA per ml.
The entire reaction mixture was spotted onto a preadsorbent silica gel GF thin layer plate and, after air drying 45 minutes, developed 12 cm in ethyl acetate:glacial acetic acid (99:1).
The developed lanes were scanned for the distribution of radiolabel using a Bioscan Imaging Detector and the integrated peaks compared to standards and controls yielding % inhibition.

Another experiment deals with T2, 5-lipoxygenase (Rattus norvegicus, UniProt P12527).
T2 construct: endogenous in cells; host or cells: casein-elicited peritoneal polymorphonuclear leukocytes of male Sprague-Dawley rats
T2 sequence (P12527 1-673): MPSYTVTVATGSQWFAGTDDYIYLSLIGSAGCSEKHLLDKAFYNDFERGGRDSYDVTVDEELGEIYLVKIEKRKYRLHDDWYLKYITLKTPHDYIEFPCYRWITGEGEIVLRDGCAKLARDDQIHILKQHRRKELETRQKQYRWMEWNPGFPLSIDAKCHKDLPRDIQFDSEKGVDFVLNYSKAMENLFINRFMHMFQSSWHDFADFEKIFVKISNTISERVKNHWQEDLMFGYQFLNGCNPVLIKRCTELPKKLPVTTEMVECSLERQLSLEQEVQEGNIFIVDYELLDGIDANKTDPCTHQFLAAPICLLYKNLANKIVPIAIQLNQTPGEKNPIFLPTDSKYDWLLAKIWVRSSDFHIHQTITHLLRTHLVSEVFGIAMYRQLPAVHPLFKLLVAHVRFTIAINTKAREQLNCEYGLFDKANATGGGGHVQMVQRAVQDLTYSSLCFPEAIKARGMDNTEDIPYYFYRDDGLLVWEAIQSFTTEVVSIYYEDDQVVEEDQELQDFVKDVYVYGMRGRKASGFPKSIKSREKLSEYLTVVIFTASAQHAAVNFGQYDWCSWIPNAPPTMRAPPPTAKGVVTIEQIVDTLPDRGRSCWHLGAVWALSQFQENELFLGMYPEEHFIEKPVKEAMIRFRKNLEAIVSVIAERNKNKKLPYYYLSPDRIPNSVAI
The experiment can be described thus: PMN5LO assay: inhibition of LTB4 production in A23187-stimulated rat peritoneal PMN (RIA). Type of experiment: cell-based. The settings on record: for IC50: estimated concentration required for 50% inhibition. On the procedure:
as §1
Elicition of Rat Peritoneal polymorphonuclear leukoytes (PMN)
Male Sprague-Dawley rats (about 350 grams) were injected intraperitoneally the day before use with 8 ml of 12% sodium caseinate. The next day the animals were killed by CO2 asphyxiation and the peritoneal cavity lavaged twice with 20 ml of Hanks balanced salts containing 15 mM HEPES (pH 7.4), 1.4 mM Ca^++ and 0.7 mM Mg^++ (Hepes-Hanks). The suspensions were filtered through plastic mesh and centrifuged at […] for 5 minutes. The cells were resuspended in 50 ml Hepes-Hanks and recentrifuged. The PMN pellets were combined and suspended at 1.25×10^7 cells/ml.
The cell suspension was then diluted 1:10, preincubated 5 minutes at 37° C. and distributed in 200 μl aliquots in the wells of 96 well microtiter plates. The wells had previously received samples of the compounds of the present invention, controls, etc., in 25 μl of 0.001% fatty acidfree BSA in Hepes-Hanks. The plates were incubated 2 minutes at 37° C. and then the cells were stimulated to produce LTB4 by the addition of 25 μl of 100 μM calcium ionophore, designated A23187. After 4 minutes at 37° C. the plates were frozen in dry ice.
Radioimmunoassay (RIA) of LTB4
The frozen plates were thawed to 4° C. and 25 μl aliquots removed to V well plates. Antibody to LTB4 (50 μl) was added and, after 15 minutes at room temperature, 50 μl of ^3 H-LTB4 was added and the plates were stored overnight at 4° C. to allow equilibration. The next day the "free" 3H-LTB4 was removed by adsorption to dextran coated charcoal [90 μl per well of a 4% charcoal suspension with 0.25% Dextran T-70 in 10 mM potassium phosphate (pH 7.3) containing lmM EDTA and 0.25 mM thimerasol] during a 10 minute ice temperature incubation. The charcoal was removed by a 10 minute centrifugation at 200 sg. Aliquots of the supernatant were counted in a Packard 460, analyzed in a Masscomp computer and the data drawn up as % inhibition of LTB4 production.

Usually inhibition stands for how much of the control response was suppressed. Low readings indicate a weak effect, high ones a strong effect. What is called IC50 is the concentration at which inhibition is half-maximal. As to `CC(=O)Oc1cc(-c2ccccc2)sc1-c1ccccc1` [Compound 3], on cyclooxygenase, at 0.01 µg/mL the inhibition was 13%, at 0.1 µg/mL the inhibition was 13%, the inhibition at 1 µg/mL was found to be 8% and the inhibition at 10 µg/mL worked out at 29%. Further, on 5-lipoxygenase (0.012 μg/ml), the PMN5LO % inhibition is reported as 38% and 0.012 µg/mL produced 27% inhibition. On 5-lipoxygenase (0.037 μg/ml), this compound displayed a PMN5LO % inhibition of 56% and an inhibition at 0.037 µg/mL of 57%. Further, the inhibition at 0.05 µg/mL on 5-lipoxygenase (0.05 μg/ml) was 100%. In addition, 0.11 µg/mL produced 100% inhibition against 5-lipoxygenase (0.11 μg/ml). Also, the IC50 on 5-lipoxygenase was 88 nM and 74 nM.

In the case of `COc1ccc(-c2sc(-c3ccccc3)cc2OC(C)=O)cc1` [Compound 14, 3-Acetoxy-2-(4'-methoxyphenyl)-5-phenylthiophene], testing at 0.1 µg/mL against cyclooxygenase gave an inhibition of 0%. At 5-lipoxygenase (0.012 μg/ml), the PMN5LO % inhibition was 12% and the inhibition at 0.012 µg/mL is 24%. In addition, on 5-lipoxygenase (0.11 μg/ml), the PMN5LO % inhibition was 91% and 46%. At 5-lipoxygenase (0.33 μg/ml), the PMN5LO % inhibition came out at 85% and the inhibition at 0.33 µg/mL amounted to 100%. On 5-lipoxygenase (1 μg/ml), this compound yielded a PMN5LO % inhibition of 80% and an inhibition at 1 µg/mL of 100%. The half-maximal inhibitory concentration (IC50) on 5-lipoxygenase is 80 nM.

On cyclooxygenase, `CC(=O)Oc1c(-c2ccccc2)sc(-c2ccccc2)c1-c1ccccc1` [Compound 7] returned an inhibition at 0.01 µg/mL of 0%, an inhibition at 0.1 µg/mL of 0% and an inhibition at 1 µg/mL of 12%. This compound returned an inhibition at 5 µg/mL on cyclooxygenase (5 μg/ml) of 76%. Further, the PMN5LO % inhibition at 5-lipoxygenase (1 μg/ml) is 10% and 0%. In addition, at 5-lipoxygenase, the half-maximal inhibitory concentration (IC50) was over 3000 nM.

Take `Oc1cc(-c2ccccc2)sc1-c1ccccc1` [Compound 4, 3-Hydroxy-2,5-diphenylthiophene]: on cyclooxygenase, testing at 0.1 µg/mL gave an inhibition of 24%, at 1 µg/mL the inhibition was 6% and the inhibition at 10 µg/mL is 92%. 0.4 µg/mL produced 18% inhibition at cyclooxygenase (0.4 μg/ml). This compound also yielded an inhibition at 2 µg/mL on cyclooxygenase (2 μg/ml) of 46%. In addition, at 5-lipoxygenase (0.012 μg/ml), the PMN5LO % inhibition was determined as 11% and the inhibition at 0.012 µg/mL worked out at 17%. Further, the PMN5LO % inhibition on 5-lipoxygenase (0.11 μg/ml) is 97% and 70%. At 5-lipoxygenase (0.33 μg/ml), this compound yielded a PMN5LO % inhibition of 85% and an inhibition at 0.33 µg/mL of 98%. For the same compound, at 5-lipoxygenase (1 μg/ml), the PMN5LO % inhibition came to 88% and at 1 µg/mL the inhibition was 99%. For the same compound, the IC50 at 5-lipoxygenase is 110 nM.

Take `Oc1c(-c2ccccc2)sc(-c2ccccc2)c1-c1ccccc1` [Compound 2, 3-Hydroxy-2,4,5-triphenylthiophene]: the results for the inhibition at 10 µg/mL against cyclooxygenase and at 5-lipoxygenase (10 μg/ml) were 23% and 95%, respectively. This compound also came in with an inhibition at 0.012 µg/mL on 5-lipoxygenase (0.012 μg/ml) of 22%. Also, the inhibition at 0.037 µg/mL at 5-lipoxygenase (0.037 μg/ml) was 14%. On 5-lipoxygenase (0.11 μg/ml), this compound had an inhibition at 0.11 µg/mL of 0%. At 5-lipoxygenase (0.3 μg/ml), this compound registered an inhibition at 0.3 µg/mL of 0%. Also, the inhibition at 1 µg/mL on 5-lipoxygenase (1 μg/ml) was found to be 53%. Moreover, at 5-lipoxygenase, the IC50 was about 3000 nM.

`CC(=O)Oc1cscc1-c1ccccc1` [Compound 15, 3-Acetoxy-4-phenylthiophene]: on cyclooxygenase, the inhibition at 0.1 µg/mL is 0% and at 1 µg/mL the inhibition was 0%. In addition, the inhibition at 0.012 µg/mL at 5-lipoxygenase (0.012 μg/ml) was found to be 9%. Moreover, the inhibition at 0.037 µg/mL against 5-lipoxygenase (0.037 μg/ml) came out at 0%. Besides, the inhibition at 0.11 µg/mL against 5-lipoxygenase (0.11 μg/ml) came to 0%. Moreover, at 5-lipoxygenase (0.33 μg/ml), the inhibition at 0.33 µg/mL was found to be 0%. In addition, at 5-lipoxygenase (1 μg/ml), testing at 1 µg/mL gave an inhibition of 10%.
